“Also recorded” adds a separate entry of the source. Read-outs that look alike come from different tables or passages of the source.
What was measured:
[1] = test system: HIV-1NL4-3 (X4 tropic); assay: HIV-1 replication in infected PBMC cultures (T cells), reverse transcriptase activity in supernatant; assay type: cell-based; conditions: for concentration beginning with which HIV-1 replication is inhibited / HIV-1 replication / inhibition of the HIV-1 replication / reduction of the HIV-1 replication capacity (AUC): T cells; for concentration beginning with which HIV-1 replication is inhibited: substance alone; for HIV-1 replication: structured and permanent treatment; for reduction of the HIV-1 replication capacity (AUC): 6 donors
Description: According to the invention, isolated primary human peripheral blood mononuclear cell (PBMC) cultures were infected to this aim with the virus strain HIV-1NL4-3(X4 tropic) or HIV-1 NLNL4-3(R5 tropic). […] The treatment with DUB inhibitors was carried out over the entire experimental period (“permanent treatment”) or only on Day 1 and Day 3 after infection (“structured treatment”). In the infection with HIV-1NL4-3 (R5 tropic), only a permanent treatment was performed. Each 2-3 days samples from the cell culture supernatants were taken, frozen and later on used for determining reverse transcriptase activity. Concomitantly, 80% of the cell culture medium was replaced and fresh PR-619 was added. Reverse transcriptase activity (ccpm) was determined in the cell-free cell culture supernatants and plotted against time (FIGS. 4A and 4B; the black arrows indicate the treatment with PR-619).
For six different donors the area under the curve (AUC) in the HIV-1 replication profiles after infection of PBMCs with T-cell tropic virus was determined, representing the HIV-1 replication capacity.
Experiments were carried out as described in Example 2. […]

[2] = test system: HIV-1NL4-3 (R5 tropic); assay: HIV-1 replication in infected PBMC cultures (macrophages), reverse transcriptase activity in supernatant; assay type: cell-based; conditions: for reduction of the HIV-1 replication capacity: 5 donors
Source text: As could be shown in the preceding example that PR-619 inhibits the late processes in Gag processing this effect on the spread of infection was investigated. According to the invention, isolated primary human peripheral blood mononuclear cell (PBMC) cultures were infected to this aim with the virus strain HIV-1NL4-3(X4 tropic) or HIV-1 NLNL4-3(R5 tropic). One day after infection cells were washed with PBS (phosphate buffer saline), provided with fresh medium containing the DUB inhibitor PR-619 in several non-cytotoxic concentrations (3.5 μM, 7 μM, 14 μM, 28 μM). The treatment with DUB inhibitors was carried out over the entire experimental period (“permanent treatment”) or only on Day 1 and Day 3 after infection (“structured treatment”). In the infection with HIV-1NL4-3 (R5 tropic), only a permanent treatment was performed. Each 2-3 days samples from the cell culture supernatants were taken, frozen and later on used for determining reverse transcriptase activity. Concomitantly, 80% of the cell culture medium was replaced and fresh PR-619 was added. Reverse transcriptase activity (ccpm) was determined in the cell-free cell culture supernatants and plotted against time (FIGS. 4A and 4B; the black arrows indicate the treatment with PR-619).
In permanent treatment 3.5 μM yielded a reduction by 35%(±8%), 7 μM a reduction by 60%(±9%) and 14 μM by 100%.
For comparative purposes, the anti-retroviral effect found for PR-619 was compared with three other DUB inhibitors P005091, WP1130 and P22077. Experiments were carried out as described in Example 2.
In order to clarify the question whether a combined permanent treatment with PR-619 and the proteasome inhibitor bortezomib (Velcade®) causes a synergistic effect on the replication capacity of HIV-1, a cross titration was carried out with both substances (analogous to Example 2 and 3). Herein, PBMC cultures were treated permanently after infection with the virus strain HIV-1NL4-3, first only with the DUB inhibitor PR-619 or with the proteasome inhibitor bortezomib in non-toxic increasing concentrations (PR-619: 0.3 μM, 0.9 μM, 2.75 μM and 8 μM; bortezomib: 0.6 nM, 1.5 nM, 5.3 nM and 16 nM).
Herein, the cells were treated permanently with constantly 0.6 nM bortezomib and increasing concentrations of PR-619 (0.3 μM, 0.9 μM, 2.7 μM and 8 μM). Experiments were carried out as described in Example 2. […] The DUB inhibitor PR-619 is able to inhibit the HIV-1 replication beginning with a concentration of 2.7 μM (FIG. 12B).

[3] = test system: PBMC cultures
Description: Toxicity was assessed with a WST assay. Herein viable cells with an intact mitochondrial succinate-tetrazolium dehydrogenase system effect an enzymatic conversion of the feebly red tetrazolium salt WST-1 (4-[3-(4-iodophenyl)-2-(4-nitrophenyl)-2H-5tetrazolio]-1,3 benzene disulfonate) into the dark red formazan. This color change can be measured photometrically in a spectrophotometer. Thus, the WST assay is a very sensitive method for measuring the toxicity of substances on the cell metabolism.
The respective percentage of dead cells was depicted in comparison to untreated control (100%).

[4] = test system: HIV-1 Gag structure proteins; assay: Western Blot analysis of HIV-1 Gag processing in HeLa cells transfected with pNLΔenv (cell and VLP fraction); assay type: cell-based
Description: In order to investigate whether PR-619 and its derivatives inhibit the processing of HIV-1 Gag structure proteins, Western Blot (WB) analyses were carried out. Therefore, HeLa cell cultures were transfected with the pNLΔenv plasmid which encodes for HIV-1 proteins excluding the env envelope proteins. This enables the production of virus-like particles (VLPs), an established in vitro model in HIV-1 research. 24 h after transfection the cells were transferred to reaction vessels, and a pre-incubation with PR-619 for 1 h was performed. Thereupon, the cells were washed three times with PBS and incubated for 4 h in fresh RPMI medium either with 20 μM PR-619 (Merck-Millipore) or with the corresponding amount of DMSO as solvent control at 37° C.
Then a separation into a cell and a VLP fraction was effected by means of centrifugation. VLPs were purified from the cell culture supernatants via a 20% sucrose cushion. Cells were then washed with PBS and lysed with RIPA buffer. Protein concentrations were determined by means of Bradford protein assays and assimilated for the respective lysates. […]
A densitometric evaluation of Gag processing in the VLP fraction was carried out with the analysis program AIDA®. The densitometric evaluation allows for the quantification of signal intensities in Western Blot and thus conclusions on the quantity of a certain protein in the sample. […]

[5] = test system: MHC-I antigen presentation of Gag-derived epitopes; assay: MHC-I antigen presentation of Gag-derived SL epitope in HeLa-Kb cells, FACS with mAB 25D1.16; assay type: cell-based, human; conditions: HeLa-Kb cells transfected with Gag-SL, 7 and 14 μM, dose-dependent
Source text: Since there is no conformation-dependent MHC-I specific antibody that could detect Gag epitopes bound to human MHC-I molecules the ovalbumin-derived sequence […] (SL) was introduced as a model epitope into the non-structured SP1 spacer region of Gag. For measuring the MHC-I antigen presentation, HeLa cells constitutively expressing the murine SL-binding MHC-I allotype H2-Kb (HeLa-Kb) (Porgador et al., 1997, Immunity 6(6), 715-726) were transfected with expression plasmids coding for Gag-SL proteins. Performing flow cytometric analyses the monoclonal antibody (mAB) 25D1.16 was used which recognizes specifically SL in the complex with H2-Kb.
24 h after transfection the cells were incubated overnight with different concentrations of the DUB inhibitor PR-619 (7 and 14 μM).
Then, an acid wash (acid washing buffer pH 3) was carried out for removing the H2-Kb-SL complexes from the cell surface. Thereafter, the cells were incubated with and without PR-619 for 4 h at 37° C. and then the newly loaded H2-Kb-SL complexes at the cell surface under inhibition with PR-619 were determined by FACS analysis with the monoclonal AB 25D1.16. For compensating possible differences in the expression level of Gag-SL, the mean fluorescence intensity (MFI) of the 25D1.16 staining was normalized to the MFI of the intracellular Gag signal.

[6] = test system: HIV-1NL4-3 (X4-tropic) or HIV-1NL4-3 (R5-tropic); assay: HIV-1 replication in human lymphoid aggregate culture (HLAC) ex vivo tonsillar tissue; assay type: cell-based; conditions: for reduction of the HIV-1 replication capacity: T cells and macrophages, permanent treatment, 3 replication profiles
Description: In order to substantiate the inhibition of the HIV replication under treatment with PR-619, as observed in Example 2, according to the invention human ex vivo cultivated tonsillar tissue was infected with the virus strain HIV-1NL4-3 (X4-tropic) or HIV-1NL4-3 (R5-tropic). The experiments were carried out as described in Example 2.

[7] = test system: HLAC cultures; assay: WST assay cytotoxicity in HLAC cultures from ex vivo tonsillar tissue; assay type: cell-based, human

With `CC(C)C[C@H](NC(=O)[C@H](Cc1ccccc1)NC(=O)c1cnccn1)B(O)O` [bortezomib, reference compound] the “concentration beginning with which HIV-1 replication is inhibited” value ([1]; permanent treatment) was 5.3 nM, the “concentration beginning with which HIV-1 replication is inhibited” value ([2]; permanent treatment, substance alone) was 5.3 nM and the “reduction in living cells” value ([3]; 16 nM, permanent treatment) was 60%. The “toxicity (WST assay)” value ([3]; 0.6-5.3 nM, permanent treatment) was “did not display any toxicity”.
With `CCC[C@H](NC(=O)/C(C#N)=C/c1cccc(Br)n1)c1ccccc1` [WP1130, (2E)-3-(6-bromo-2-pyridinyl)-2-cyano-N-[(1S)-1-phenylbutyl]-2-propenamide, reference compound] the HIV-1 replication ([1]; 3 μM and 6 μM) was “no significant reduction of the HIV-1 replication”, the HIV-1 replication ([2]; 3 μM and 6 μM) was “no significant reduction of the HIV-1 replication” and the “toxicity (WST assay)” value ([3]; concentration >3 μM, day 13) was “complete death of the cells”. The “reduction in living cells” value ([3]; permanent treatment, 3 μM, day 13) was 40%.
`N#CSc1cc(SC#N)c(N)nc1N` [PR-619, 2,6-diaminopyridine-3,5-bis(thiocyanate)] was tested, and the “Gag processing (Western Blot)” value ([4]; 20 μM PR-619, 4 h, HeLa cells transfected with pNLΔenv) was “significantly inhibits Gag processing”, the “generation of the main Gag processing product CA (densitometric evaluation, VLP fraction)” value ([4]; 20 μM PR-619, VLP fraction) was “clearly inhibited” and the “antiviral efficacy (concentration)” value ([1]; PBMC) was “about 3.5 μM”. For the same compound, the “inhibition of the HIV-1 replication” value ([1]; 3.5 μM, permanent treatment) was “complete”, the “inhibition of the HIV-1 replication” value ([1]; 3.5 μM, structured treatment) was “clear” and the “reduction of the HIV-1 replication capacity (AUC)” value (shortened to “reduction … (AUC)”) ([1]; permanent treatment, 3.5 μM) was 50%(±16%). The “reduction … (AUC)” value ([1]; permanent treatment, 7 μM) was 97%(±15%), the “reduction … (AUC)” value ([1]; permanent treatment, 14 μM) was 100% and the “concentration beginning with which HIV-1 replication is inhibited” value ([1]; permanent treatment) was 2700 nM. For the same compound, the “reduction … (AUC)” value ([1]; structured treatment, 3.5 μM) was 23%(±14%), the “reduction … (AUC)” value ([1]; structured treatment, 7 μM) was 94%(±14%) and the “reduction … (AUC)” value ([1]; structured treatment, 14 μM) was 100%. The “reduction of the HIV-1 replication capacity” value ([2]; permanent treatment, 3.5 μM) was 35%(±8%), the “reduction of the HIV-1 replication capacity” value ([2]; permanent treatment, 7 μM) was 60%(±9%) and the “reduction of the HIV-1 replication capacity” value ([2]; permanent treatment, 14 μM) was 100%. The “increase of MHC-I antigen presentation of Gag-derived epitopes” value [5] was 6 fold, the “inhibitory effect on the HIV-1 replication” value ([6]; 1.25 μM) was “did not exert an inhibitory effect” and the “inhibition of the replication” value ([6]; 2.5 μM, 5 μM and 10 μM) was “clear, respectively complete inhibition of the replication”. For the same compound, the “reduction of the HIV-1 replication capacity” value ([6]; 2.5 μM) was 40%(±9%), the “reduction of the HIV-1 replication capacity” value ([6]; 5 μM) was 86%(±2%) and the “reduction of the HIV-1 replication capacity” value ([6]; 10 μM) was “completely”. For the same compound, the “toxic effect (WST assay)” value ([7]; all applied antiretrovirally effective concentrations, 15 days) was “did not display any significant toxic effect”, the “toxic effects (WST assay)” value ([7]; highest concentration of 10 μM) was “no toxic effects were observed” and the “concentration at which a clear toxic effect starts” value ([3]; PBMC, 15 days) was 28 µM. The “toxic effect (WST assay)” value ([3]; antivirally effective concentrations, observation period of 15 days) was “did not display any significant toxic effect; also recorded: does not display a significant toxic effect” and the “toxic effect (WST assay)” value ([3]; highest used concentration of 8 μM, permanent treatment) was “did not show either a clear toxic effect”.
With `CC(=O)c1cc([N+](=O)[O-])c(Sc2ccc(F)cc2F)s1` [P22077, reference compound] the HIV replication ([1]; 7.5 μM, 15 μM, 30 μM and 60 μM) was “nearly complete inhibition of HIV replication” and the “general cytotoxic damage of the host cell” value ([3]; 7.5 μM, 15 μM, 30 μM and 60 μM) was “does not exist”.
`COc1ccc(C[C@H](NC(=O)[C@H](C)NC(=O)CN2CCOCC2)C(=O)N[C@@H](Cc2ccccc2)C(=O)[C@@]2(C)CO2)cc1` [PR-957, reference compound] was tested, and the “concentration beginning with which HIV-1 replication is inhibited” value ([1]; permanent treatment) was 80 nM and the “toxicity (WST assay)” value ([3]; 20-160 nM, permanent treatment) was “did not display any toxicity”.
`CC(=O)c1cc([N+](=O)[O-])c(Sc2cccc(Cl)c2Cl)s1` [P005091, 1-[5-[(2,3-dichlorophenyl)thio]-4-nitro-2-thienyl]-ethanone, reference compound] was tested, and the HIV-1 replication ([1]; 0.75 μM, 1.5 μM and 3 μM) was “does not inhibit HIV-1 replication”, the HIV-1 replication ([2]; 0.75 μM, 1.5 μM and 3 μM) was “does not inhibit HIV-1 replication” and the “toxicity (WST assay)” value ([3]; 0.75-3 μM, day 13) was “shows no toxicity”.
